Values quoted from earlier work in patent US20240139293A1, “Compositions and Methods for Enhancing Anti-Viral Therapies” (XORTX THERAPEUTICS, INC., priority 2021, published 2024).

System: SARS-CoV-2
Conditions: cited study: SARS-CoV-2 replication in vivo and in vitro

CCCN(CCC)S(=O)(=O)c1ccc(C(=O)O)cc1 [probenecid]
viral load due to Coronavirus: can decrease viral load
